Results on 13 compounds are retold here after patent publication US9771341B2, “Piperazine carbamates and methods of making and using same” (Abide Therapeutics, Inc., priority 2015, dated 2017).

Common to all, as to format: biochemical
For one assay, the target named is T1, FAAH (Mus musculus, UniProt O08914).
T1 construct: Proteomes (mouse brain membrane fraction or cell lysates); from tissue; host or cells: mouse brain membrane fraction (or unspecified cell lysates)
T1 sequence (O08914 1-579): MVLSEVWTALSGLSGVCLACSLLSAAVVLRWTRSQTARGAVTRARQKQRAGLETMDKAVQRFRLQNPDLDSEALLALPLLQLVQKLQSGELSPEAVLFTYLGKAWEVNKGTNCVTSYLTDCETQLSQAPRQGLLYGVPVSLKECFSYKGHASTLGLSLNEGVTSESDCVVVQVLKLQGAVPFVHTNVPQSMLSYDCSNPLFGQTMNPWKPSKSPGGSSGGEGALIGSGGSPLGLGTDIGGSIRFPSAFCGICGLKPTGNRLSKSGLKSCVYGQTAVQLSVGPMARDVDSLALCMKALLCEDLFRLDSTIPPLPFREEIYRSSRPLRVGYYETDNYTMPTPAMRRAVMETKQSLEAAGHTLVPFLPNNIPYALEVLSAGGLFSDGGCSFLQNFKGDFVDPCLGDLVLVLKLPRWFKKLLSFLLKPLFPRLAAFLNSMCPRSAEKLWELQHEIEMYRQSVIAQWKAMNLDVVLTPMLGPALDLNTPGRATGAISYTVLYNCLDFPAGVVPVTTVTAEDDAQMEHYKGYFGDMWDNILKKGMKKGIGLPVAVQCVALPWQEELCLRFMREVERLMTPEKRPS
In words: In vitro competitive activity-based protein profiling (mouse), FAAH. Conditions: for inhibition at 1 µM: mouse proteome, in vitro; for IC50: mouse brain membrane fraction or cell lysates, 30 min preincubation at 37° C, FP-Rh probe. The protocol: (§1) In Vitro Competitive Activity-Based Protein Profiling (Mouse).
Proteomes (mouse brain membrane fraction or cell lysates) (50 μL, 1.0 mg/mL total protein concentration) were preincubated with varying concentrations of inhibitors at 37° C. After 30 min, FP-Rh (1.0 μL, 50 μM in DMSO) was added and the mixture was incubated for another 30 min at 37° C. Reactions were quenched with SDS loading buffer (50 μL-4×) and run on SDS-PAGE. Following gel imaging, serine hydrolase activity was determined by measuring fluorescent intensity of gel bands corresponding to MAGL, ABHD6 and FAAH using ImageJ 1.43u software.

The target in a further assay is T2, MAGL (Mus musculus, UniProt O35678).
T2 construct: Proteomes (mouse brain membrane fraction or cell lysates); from tissue; host or cells: mouse brain membrane fraction (or unspecified cell lysates)
T2 sequence (O35678 1-303): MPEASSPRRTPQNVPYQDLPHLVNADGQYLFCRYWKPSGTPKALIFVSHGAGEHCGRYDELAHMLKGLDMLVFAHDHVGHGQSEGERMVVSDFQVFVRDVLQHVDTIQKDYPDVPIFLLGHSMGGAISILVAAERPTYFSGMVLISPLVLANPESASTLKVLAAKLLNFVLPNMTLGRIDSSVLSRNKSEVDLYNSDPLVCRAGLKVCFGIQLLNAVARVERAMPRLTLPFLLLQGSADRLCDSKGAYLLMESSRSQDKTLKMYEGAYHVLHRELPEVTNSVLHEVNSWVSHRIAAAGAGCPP
The assay is described as follows: In vitro competitive activity-based protein profiling (mouse), MAGL. Conditions: for inhibition at 1 µM: mouse proteome, in vitro, read-out: % Inhibition at 1 μM MAGL; for IC50: mouse brain membrane fraction or cell lysates, 30 min preincubation at 37° C, FP-Rh probe. The protocol:
as §1
(§2) Proteomes (mouse brain membrane fraction or cell lysates) (50 μL, 1.0 mg/mL total protein concentration) were preincubated with varying concentrations of inhibitors at 37° C. After 30 min, FP-Rh (1.0 μL, 50 μM in DMSO) was added and the mixture was incubated for another 30 min at 37° C. Reactions were quenched with SDS loading buffer (50 μL-4×) and run on SDS-PAGE.

The next assay has as its target T3, ABHD6 (Mus musculus, UniProt Q8R2Y0).
T3 construct: Proteomes (mouse brain membrane fraction or cell lysates); from tissue; host or cells: mouse brain membrane fraction (or unspecified cell lysates)
T3 sequence (Q8R2Y0 1-336): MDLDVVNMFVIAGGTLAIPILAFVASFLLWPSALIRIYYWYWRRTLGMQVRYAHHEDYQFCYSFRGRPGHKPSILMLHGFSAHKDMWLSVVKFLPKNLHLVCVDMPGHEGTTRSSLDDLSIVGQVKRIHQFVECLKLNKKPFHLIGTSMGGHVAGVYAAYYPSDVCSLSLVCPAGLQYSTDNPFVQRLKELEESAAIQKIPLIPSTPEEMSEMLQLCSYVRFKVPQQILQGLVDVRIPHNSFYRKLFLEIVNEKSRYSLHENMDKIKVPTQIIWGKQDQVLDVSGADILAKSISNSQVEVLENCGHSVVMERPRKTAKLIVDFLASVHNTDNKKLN
The assay is described as follows: In vitro competitive activity-based protein profiling (mouse), ABHD6. Conditions: for inhibition at 1 µM: mouse proteome, in vitro, read-out: % Inhibition at 1 μM ABHD6; for IC50: mouse brain membrane fraction or cell lysates, 30 min preincubation at 37° C, FP-Rh probe. The protocol:
as §1, §2

One may read the inhibition as the relative decrease from the control value, in per cent. As usually defined, the IC50 is the concentration at which inhibition is half-maximal. A high value points to lower potency. With `Cc1c(CN2CCCC2)cccc1CN1CCN(C(=O)OC(C(F)(F)F)C(F)(F)F)CC1` [Example 13, 1,1,1,3,3,3-hexafluoropropan-2-yl 4-(2-methyl-3-(pyrrolidin-1-ylmethyl)benzyl)piperazine-1-carboxylate], the inhibition at 1 µM at FAAH is less than 25%; at MAGL, more than 75%; at ABHD6, more than 75%. The figures for the IC50 at FAAH, at MAGL and on ABHD6 were more than 1000 nM, 100 to 1000 nM and 100 to 1000 nM, respectively.
For the compound `CC(=O)N1CCN(Cc2cccc(CN3CCN(C(=O)OC(C(F)(F)F)C(F)(F)F)CC3)c2C)CC1` [Example 14, 1,1,1,3,3,3-hexafluoropropan-2-yl 4-(3-((4-acetylpiperazin-1-yl)methyl)-2-methylbenzyl)piperazine-1-carboxylate], the inhibition at 1 µM was less than 25% at FAAH, more than 75% at MAGL and more than 75% at ABHD6. The IC50 was more than 1000 nM on FAAH, less than 100 nM on MAGL and less than 100 nM at ABHD6.
On to `Cc1c(CN2CCC(F)CC2)cccc1CN1CCN(C(=O)OC(C(F)(F)F)C(F)(F)F)CC1` [Example 15, 1,1,1,3,3,3-hexafluoropropan-2-yl 4-(3-((4-fluoropiperidin-1-yl)methyl)-2-methylbenzyl)piperazine-1-carboxylate], for which the inhibition at 1 µM at FAAH was less than 25%; on MAGL, more than 75%; at ABHD6 it was more than 75%. The IC50 at FAAH was more than 1000 nM; at MAGL, less than 100 nM; on ABHD6, 100 to 1000 nM.
With `CC(=O)N[C@@H]1CCN(Cc2cccc(CN3CCN(C(=O)OC(C(F)(F)F)C(F)(F)F)CC3)c2C)C1` [Example 17, 1,1,1,3,3,3-hexafluoropropan-2-yl (R)-4-(3-((3-acetamidopyrrolidin-1-yl)methyl)-2-methylbenzyl)piperazine-1-carboxylate], the inhibition at 1 µM at FAAH is less than 25%; on MAGL, more than 75%; at ABHD6 it was more than 75%. In addition, the half-inhibitory concentration (IC50) at FAAH is more than 1000 nM; on MAGL, 100 to 1000 nM; at ABHD6 it was 100 to 1000 nM.
`CC(=O)N[C@H]1CCN(Cc2cccc(CN3CCN(C(=O)OC(C(F)(F)F)C(F)(F)F)CC3)c2C)C1` [Example 18, 1,1,1,3,3,3-hexafluoropropan-2-yl (S)-4-(3-((3-acetamidopyrrolidin-1-yl)methyl)-2-methylbenzyl)piperazine-1-carboxylate]: the inhibition at 1 µM is less than 25% at FAAH, more than 75% on MAGL and more than 75% at ABHD6. In addition, the concentration for half-maximal inhibition (IC50) at FAAH is more than 1000 nM; at MAGL, 100 to 1000 nM; on ABHD6, 100 to 1000 nM.
On to `Cc1c(CN2CCN(C(=O)OC(C(F)(F)F)C(F)(F)F)CC2)cccc1CN1CCCC[C@H]1C` [Example 19, 1,1,1,3,3,3-hexafluoropropan-2-yl (R)-4-(2-methyl-3-((2-methylpiperidin-1-yl)methyl)benzyl)piperazine-1-carboxylate], for which the inhibition at 1 µM at FAAH is less than 25%; at MAGL, more than 75%; on ABHD6, more than 75%. The half-maximal inhibitory concentration (IC50) at FAAH was more than 1000 nM; at MAGL, 100 to 1000 nM; on ABHD6, 100 to 1000 nM.
Take `Cc1c(CN2CCN(C(=O)OC(C(F)(F)F)C(F)(F)F)CC2)cccc1CN1CCCC[C@@H]1C` [Example 20, 1,1,1,3,3,3-hexafluoropropan-2-yl (S)-4-(2-methyl-3-((2-methylpiperidin-1-yl)methyl)benzyl)piperazine-1-carboxylate]: the inhibition at 1 µM was less than 25% on FAAH, more than 75% on MAGL and more than 75% on ABHD6. For the same compound, the IC50 on FAAH is more than 1000 nM; on MAGL, 100 to 1000 nM; on ABHD6, 100 to 1000 nM.
On to `Cc1c(CN2CCOCC2)cccc1CN1CCN(C(=O)OC(C(F)(F)F)C(F)(F)F)CC1` [Example 21, 1,1,1,3,3,3-hexafluoropropan-2-yl 4-(2-methyl-3-(morpholinomethyl)benzyl)piperazine-1-carboxylate], for which the figures for the inhibition at 1 µM on FAAH, at MAGL and at ABHD6 were less than 25%, more than 75% and more than 75%, respectively. The half-inhibitory concentration (IC50) at FAAH is more than 1000 nM; on MAGL, 100 to 1000 nM; on ABHD6, 100 to 1000 nM.
With `O=C(OC(C(F)(F)F)C(F)(F)F)N1CCN(Cc2cccc(CN3CCOCC3)c2F)CC1` [Example 22, 1,1,1,3,3,3-hexafluoropropan-2-yl 4-(2-fluoro-3-(morpholinomethyl)benzyl)piperazine-1-carboxylate], the inhibition at 1 µM at FAAH is less than 25%; at MAGL, more than 75%; at ABHD6, more than 75%. The half-inhibitory concentration (IC50) at FAAH is more than 1000 nM; at MAGL, less than 100 nM; on ABHD6, 100 to 1000 nM.
Consider `O=C(OC(C(F)(F)F)C(F)(F)F)N1CCN(Cc2ccc(CN3CCCCC3)cc2OC(F)(F)F)CC1` [Example 24, 1,1,1,3,3,3-hexafluoropropan-2-yl 4-(4-(piperidin-1-ylmethyl)-2-(trifluoromethoxy)benzyl)piperazine-1-carboxylate], for which the inhibition at 1 µM at FAAH was less than 25%; on MAGL, more than 75%; on ABHD6, less than 25%. Moreover, the values for the half-maximal inhibitory concentration (IC50) on FAAH, at MAGL and at ABHD6 were more than 1000 nM, 100 to 1000 nM and more than 1000 nM, respectively.
As for `O=C(OC(C(F)(F)F)C(F)(F)F)N1CCN(Cc2ccc(CN3CCCC3)cc2OC(F)(F)F)CC1` [Example 25, 1,1,1,3,3,3-hexafluoropropan-2-yl 4-(4-(pyrrolidin-1-ylmethyl)-2-(trifluoromethoxy)benzyl)piperazine-1-carboxylate], the inhibition at 1 µM at FAAH was less than 25%; at MAGL, more than 75%; on ABHD6, less than 25%. For the same compound, the IC50 on FAAH is more than 1000 nM; on MAGL it was 100 to 1000 nM; at ABHD6 it was more than 1000 nM.
In the case of `O=C(OC(C(F)(F)F)C(F)(F)F)N1CCN(Cc2ccc(N3CC4CCC(C3)O4)cc2F)CC1` [Example 27, 1,1,1,3,3,3-hexafluoropropan-2-yl 4-(4-(8-oxa-3-azabicyclo[3.2.1]octan-3-yl)-2-fluorobenzyl)piperazine-1-carboxylate], the inhibition at 1 µM was less than 25% at FAAH, more than 75% on MAGL and 25 to 75% on ABHD6. Further, the results for the IC50 at FAAH, at MAGL and on ABHD6 were more than 1000 nM, less than 100 nM and 100 to 1000 nM, respectively.
Regarding `O=C(OC(C(F)(F)F)C(F)(F)F)N1CCN(Cc2ccc(N3CC4CCC(C3)O4)cc2OC(F)(F)F)CC1` [Example 28, 1,1,1,3,3,3-hexafluoropropan-2-yl 4-(4-(8-oxa-3-azabicyclo[3.2.1]octan-3-yl)-2-(trifluoromethoxy)benzyl)piperazine-1-carboxylate], the inhibition at 1 µM at FAAH is less than 25%; at MAGL, more than 75%; at ABHD6 it was less than 25%. In addition, the IC50 on FAAH is more than 1000 nM; at MAGL, 100 to 1000 nM; at ABHD6 it was more than 1000 nM.
